These results are taken from publication PMC7653338 (Beilstein Journal of Organic Chemistry, 2020).

The subject of series [1] is enterokinase (ENTK). In words: enterokinase (ENTK).
Series [2] deals with proteinase K. In words: proteinase K (5 U/mL) in Tris-HCl buffer, pH 7.0. As to conditions: up to 24 h.
Series [3] is described as follows: lysates of HeLa cells, in 10 mmol of lysis buffer at pH 7.4. The settings on record: 37 °C, up to 24 h.
The next series has as its system Saos-2 cells. In words: MTT cell viability assay, Saos-2 cells. It is filed as cell-based. As to conditions: 400 μM, three days, absorbance 595 nm, three independent experiments. The protocol: (§1) We investigated the cell compatibility of 1 and 2 by incubation with two kinds of mammalian cells, HeLa and Saos-2 cells, using the 3-(4,5-dimethylthiazol-2-yl)-2,5-diphenyl tetrazolium bromide (MTT) assay. The cell viability of HeLa and Soas-2 cells after being incubated with 1 (400 μM) for three days are about 90% and 80%, respectively. […] To confirm that 1 and 2 convert from micelles to nanofibers in a cellular environment, we incubated of 1 or 2 at 500 μM in the lysates of HeLa cells (Figure S5, Supporting Information File 1) and examined the amount of each component in % by LC–MS. After 24 h incubation, 44% of 1 or 39% of 2, was cleaved to Nap-ffky, which self-assembles as part for the nanofibers. […] Then, we used confocal laser scanning microscopy (CLSM) to examine whether these compounds deliver RPE into HeLa cells. […]
(§2) Circular dichroism (CD) analysis : CD spectra were recorded ([…]) using a JASCO 810 spectrometer under a nitrogen atmosphere. […] The percentage of the secondary structures in different samples was calculated by the programs provided in DichroWeb. […]
(§3) reaction and to dissolve the purple formazan. After incubation of the cells at 37 ° C overnight, the absorbance of each well at 595 nm was measured in a multimode microplate reader. […]

Series [4] concerns the target enterokinase (ENTK) (Homo sapiens, UniProt P98073). In words: Proteolysis by enterokinase (ENTK). It is filed as in vitro ADME. As to conditions: Figures S3 and S4. An excerpt: In addition, unlike the FLAG-tag-based branched peptides, 1 and 2 are proteolytic-resistant to enterokinase (ENTK, Figures S3 and S4, Supporting Information File 1).
Series [5] addresses proteinase K (Parengyodontium album, UniProt P06873). The series is described as follows: Enzymatic proteolysis catalyzed by proteinase K, LC-MS. The class given is in vitro ADME. As to conditions: for proteolytic products with proteinase K: 5 mM peptide, proteinase K 5 U/mL, Tris-HCl buffer pH 7.0, 24 h, LC-MS. The protocol: After having obtained the peptides 1 and 2, we examined the enzymatic proteolysis of 1 and 2 catalyzed by proteinase K. We added proteinase K, a powerful endopeptidase, to the solutions of 1 and 2 (5 mM, pH 7.0, in Tris-HCl buffer). […] Then, we conducted a time-dependent CD analysis to examine the change of the secondary structural conformations of 1 and 2 during the proteolysis catalyzed by proteinase K in Tris-HCl buffer at pH 7.0. […] During the transition from micelles to fibrils, the CD signal at 210 nm reverses the sign, likely due to the self-assembly of Nap-ffky to helical fibrils. Analyzing the CD spectra by the Contin-LL analysis program, we estimated the percentage of each conformation, further confirming the trend and the assignment of the dominant conformation. As shown in Figure 2C and Figure 2F, the initial state of peptide 1 has more β-strand conformations than that of peptide 2. With increasing proteolysis time, the CD spectra indicate that the cleavage of 1 or 2 results in more assemblies that favor β-strand conformations (Figure 2D and Figure 2E). In addition, the ratio of the β-strand conformation resulted from the cleavage of 1 being slightly faster than that of 2.
Figure 2 A) LC–MS spectrum of the proteolytic products after 1 (5 mM) was incubated with proteinase K (5 U/mL) for 24 h. B) Time-dependent circular dichroism (CD) spectra of 1 incubated with proteinase K in Tris-HCl buffer at pH 7.0. C) CD simulation of the mixture from the spectra in B. D) LC–MS spectrum of the proteolytic products after 2 (5 mM) was incubated with proteinase K (5 U/mL) for 24 h. E) Time-dependent CD spectra of 2 incubated with proteinase K in Tris-HCl buffer at pH 7.0. F) CD simulation of the mixture from the spectra in E.

The next series deals with HeLa cells. The series is described as follows: MTT cell viability assay, HeLa cells. It is filed as cell-based. As to conditions: 400 μM, three days, absorbance 595 nm, three independent experiments. As to the method: as §1, §2, §3
On the technique in general: Formazan colour is commonly taken as a measure of viable cells.

Series [6] is classed as in vitro ADME. As to conditions: 500 μM peptide in HeLa cell lysate, 24 h, 37 °C, lysis buffer pH 7.4, LC-MS. The protocol:
as §1, with “cells. After mixing R-phycoerythrin (RPE), a red fluorescent protein, with 1 or 2 at different concentrations, we incubated the mixtures with HeLa cells for 2 h and 4 h.” for “cells.”
reaction and to dissolve the purple formazan. After incubation of the cells at 37 ° C overnight, the absorbance of each well at 595 nm was measured in a multimode microplate reader. Three independent experiments were performed, with an average ± […]
Confocal microscopy: Cells in the exponential growth phase were seeded in a glass-bottomed culture chamber at 1 × 10^5 cells/well. […]

Entries after “also recorded” stand apart in the source; their conditions may differ. Residues, ends and D or L forms follow the SMILES beside them. *: point of attachment. X1 = O=C(Cc1ccc2ccccc2c1)N[C@H](Cc1ccccc1)C(=O)N[C@H](Cc1ccccc1)C(=O)N[C@H](CCCCN*)C(=O)N[C@H](Cc1ccc(O)cc1)C(=O)O

The cell viability is a per cent measure of how many cells are alive, often set against a control.

Chain of proteinase K (Parengyodontium album, UniProt P06873) (P06873 106-384, species assumed): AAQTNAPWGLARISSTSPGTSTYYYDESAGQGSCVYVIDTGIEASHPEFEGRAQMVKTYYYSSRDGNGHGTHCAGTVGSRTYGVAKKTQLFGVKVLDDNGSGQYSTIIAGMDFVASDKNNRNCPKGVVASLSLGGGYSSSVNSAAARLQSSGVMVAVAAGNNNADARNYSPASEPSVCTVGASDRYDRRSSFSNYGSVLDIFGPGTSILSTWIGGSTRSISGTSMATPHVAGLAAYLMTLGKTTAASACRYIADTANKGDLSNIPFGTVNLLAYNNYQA
Chain of enterokinase (ENTK) (Homo sapiens, UniProt P98073) (P98073 whole entry, species assumed): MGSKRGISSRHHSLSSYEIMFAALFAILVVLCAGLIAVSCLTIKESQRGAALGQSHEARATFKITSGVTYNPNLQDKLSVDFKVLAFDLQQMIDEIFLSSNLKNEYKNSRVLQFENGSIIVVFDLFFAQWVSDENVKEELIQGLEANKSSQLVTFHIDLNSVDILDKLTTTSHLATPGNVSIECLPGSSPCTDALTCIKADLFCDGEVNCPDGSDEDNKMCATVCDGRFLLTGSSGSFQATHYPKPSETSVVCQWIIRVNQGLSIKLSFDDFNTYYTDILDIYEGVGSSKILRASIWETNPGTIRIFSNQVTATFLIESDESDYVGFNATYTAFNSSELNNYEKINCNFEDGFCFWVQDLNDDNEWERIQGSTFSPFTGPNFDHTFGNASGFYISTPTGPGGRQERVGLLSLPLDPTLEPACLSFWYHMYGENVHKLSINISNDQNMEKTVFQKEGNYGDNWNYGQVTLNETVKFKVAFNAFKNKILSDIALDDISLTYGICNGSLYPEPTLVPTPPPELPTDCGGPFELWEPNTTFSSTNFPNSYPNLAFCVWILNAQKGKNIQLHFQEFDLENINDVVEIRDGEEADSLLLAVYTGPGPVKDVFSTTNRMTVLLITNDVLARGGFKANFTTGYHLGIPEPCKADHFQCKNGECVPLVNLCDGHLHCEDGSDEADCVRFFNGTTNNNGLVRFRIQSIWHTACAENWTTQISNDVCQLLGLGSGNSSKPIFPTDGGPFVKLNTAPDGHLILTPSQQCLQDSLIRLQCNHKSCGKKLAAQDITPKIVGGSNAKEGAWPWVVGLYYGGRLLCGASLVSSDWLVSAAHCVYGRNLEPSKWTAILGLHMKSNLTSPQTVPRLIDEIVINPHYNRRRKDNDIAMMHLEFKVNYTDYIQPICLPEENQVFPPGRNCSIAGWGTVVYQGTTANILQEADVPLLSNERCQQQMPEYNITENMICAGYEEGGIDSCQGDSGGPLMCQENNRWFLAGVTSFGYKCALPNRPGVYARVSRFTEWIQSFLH

For Nap-ffk(AcNH-DEDDDLLIG)y, in the series on enterokinase (ENTK) [1], the not cleaved result is listed as “proteolytic-resistant to enterokinase”. Also, the fragment found result with proteinase K [2] was “Nap-ffky, 24 h”; in series [3], “Nap-ffky, 24 h”.

Regarding `CC[C@H](C)[C@H](NC(=O)[C@H](CC(C)C)NC(=O)[C@H](CC(C)C)NC(=O)[C@H](CC(=O)O)NC(=O)[C@H](CC(=O)O)NC(=O)[C@H](CC(=O)O)NC(=O)[C@H](CCC(=O)O)NC(=O)[C@@H](N)CC(=O)O)C(=O)NCC(=O)NCCCC[C@@H](NC(=O)[C@@H](Cc1ccccc1)NC(=O)[C@@H](Cc1ccccc1)NC(=O)Cc1ccc2ccccc2c1)C(=O)N[C@H](Cc1ccc(O)cc1)C(=O)O` [compound 1, Nap-ffk(NH2-DEDDDLLIG)y] (H-DEDDDLLIG-X1), the cell viability was about 80% in the series on Saos-2 cells and “about 90%” with HeLa cells. In addition, the “resistance to proteolysis by enterokinase” value on enterokinase (ENTK) [4] is “proteolytic-resistant”. Moreover, at proteinase K [5], the “proteolytic products with proteinase K” value was “undergoes proteolytic cleavage to form DEDDDLLIG and Nap-ffky”. Further, in series [6], the “amount cleaved to Nap-ffky” value turned out to be 44%.

Turning to `CC[C@H](C)[C@H](NC(=O)[C@H](CC(C)C)NC(=O)[C@H](CC(C)C)NC(=O)[C@H](CC(=O)O)NC(=O)[C@H](CC(=O)O)NC(=O)[C@H](CC(=O)O)NC(=O)[C@H](CCC(=O)O)NC(=O)[C@H](CC(=O)O)NC(C)=O)C(=O)NCC(=O)NCCCC[C@@H](NC(=O)[C@@H](Cc1ccccc1)NC(=O)[C@@H](Cc1ccccc1)NC(=O)Cc1ccc2ccccc2c1)C(=O)N[C@H](Cc1ccc(O)cc1)C(=O)O` [compound 2, Nap-ffk(AcNH-DEDDDLLIG)y] (Ac-DEDDDLLIG-X1), the “resistance to proteolysis by enterokinase” value at enterokinase (ENTK) [4] is “proteolytic-resistant”. Further, on proteinase K [5], the “proteolytic products with proteinase K” value was “proteolytically hydrolyzes into four parts, including DEDDDLLIG, DEDDDLL, DEDDDL, and Nap-ffky”. In addition, the “stability towards the proteolysis (acetylated versus non-acetylated branch)” value at proteinase K [5] (proteinase K, compared with 1) is recorded as “enhanced stability towards the proteolysis”. Moreover, the “amount cleaved to Nap-ffky” value in series [6] is listed as 39%.

With Nap-ffk(NH2-DEDDDLLIG)y, the not cleaved result in the series on enterokinase (ENTK) [1] is given as “proteolytic-resistant to enterokinase”. The fragment found entry in the series on proteinase K [2] is “DEDDDLLIG, 24 h; also recorded: Nap-ffky, 24 h”; in series [3], “Nap-ffky, 24 h”.
